pIC50: −log10 of the molar value. Read-outs that look alike come from different tables or passages of the source.
Key:
NCI-H69 xenograft = experiment: NCI-H69 lung xenograft efficacy, formulations and schedules; format: in vivo, mice; conditions: cisplatin iv 5.0 mg/kg 1x/week combined with etoposide ip 8.0 mg/kg 3x/week over two weeks (SOC); Day 21
Procedure: A further NCI-H69 study design included Conjugate 57 dosed iv at 1.0 mg/kg formulated in propylene glycol (PG), 1.0 mg/kg formulated in Solutol HS15, 0.5 mg/kg formulated in Solutol HS15 dosed twice per week, and 0.33 mg/kg formulated in Solutol HS15 dosed three times per week. A comparator group was dosed with SOC cisplatin dosed iv at 5.0 mg/kg once per week/etoposide dosed ip at 8.0 mg/kg three times per week over two weeks. A negative control vehicle was dosed with the Solutol HS 15 vehicle. All groups contained 10 animals.

HCC-33 = experiment: Inhibition of proliferation, CellTiter-Glo, HCC-33; format: cell-based, human; conditions: Homo sapiens, HCC33, 6 h incubation, n = 3, read-out: Proliferation Inhibition IC50 of DM1
Procedure: (§1) The purpose of this study was to determine the receptor-dependent inhibition of proliferation in vitro by the somatostatin targeting conjugate Conjugate 57 and determine the sensitivity to DM1 in the human SSTR2 expressing cancer cell lines: NCI-H69, NCI-H82, NCI-H727 and HCC-33. Cells were incubated with Conjugate 57 for 6 hours, in the presence or absence of an excess of octreotide, a somatostatin analogue. A three-fold serial dilution of Conjugate 57 was used for a total of ten concentration points. After treatment, cells were washed, incubated for an additional period of time, either 72 or 96 hours and proliferation was measured using the CellTiter-Glo® Luminescent Cell Viability Assay. The IC50 of Conjugate 57 was used to determine the inhibiting activity in proliferation assays. To determine DM1 sensitivity a similar method to the Conjugate 57 assay was employed with the additional incubation time points of 30 minutes, 1, 2, and 4 hours and the exclusion of the pre-treatment with octreotide. DM1 effect from the most to least sensitive cell line was determined to be: NCI-H69>HCC-33>NCI-H82>NCI-H727 (Table 5B). […] The addition of excess octreotide (100 μM) competes with Conjugate 57 for binding to the SSTR2 receptor. […] In the NCI-H69 experiments, pre-incubation with an excess of octreotide modestly diminished the activity of Conjugate 57 by 1.6 and 2.4 fold, depending on the assay conditions. In the HCC-33 cell line, activity of Conjugate 57 was 3.2 (±1.4) times higher when dosed alone, compared to when the cells were pre-incubated with octreotide. The small but measureable changes in Conjugate 57 activity in the presence of excess octreotide seen in the NCI-H69 and HCC-33 cell lines supports the receptor dependence of the Conjugate 57 antiproliferative effect seen in vitro. In summary, although all the cell lines tested in these experiments express the SSTR2 protein, they have different levels of sensitivity to the Conjugate 57 conjugate of which the DM1 sensitivity may be a contributing factor.

CYP3A4 = CYP3A4 (Homo sapiens, UniProt P08684); conditions: KADCYLA package insert; to a lesser extent by CYP3A5; cited from earlier work
NCI-H69 = experiment: cells; format: cell-based, human; conditions: Homo sapiens, read-out: Proliferation Inhibition IC50 of DM1
Procedure: as §1

NCI-H727 = experiment: cells; format: cell-based, human; conditions: Homo sapiens, read-out: Proliferation Inhibition IC50 of DM1
Procedure: as §1

NCI-H82 = experiment: cells; format: cell-based, human; conditions: Homo sapiens, read-out: Proliferation Inhibition IC50 of DM1
Procedure: as §1

[1] = cited from earlier work

Chain of CYP3A4 (P08684 whole entry): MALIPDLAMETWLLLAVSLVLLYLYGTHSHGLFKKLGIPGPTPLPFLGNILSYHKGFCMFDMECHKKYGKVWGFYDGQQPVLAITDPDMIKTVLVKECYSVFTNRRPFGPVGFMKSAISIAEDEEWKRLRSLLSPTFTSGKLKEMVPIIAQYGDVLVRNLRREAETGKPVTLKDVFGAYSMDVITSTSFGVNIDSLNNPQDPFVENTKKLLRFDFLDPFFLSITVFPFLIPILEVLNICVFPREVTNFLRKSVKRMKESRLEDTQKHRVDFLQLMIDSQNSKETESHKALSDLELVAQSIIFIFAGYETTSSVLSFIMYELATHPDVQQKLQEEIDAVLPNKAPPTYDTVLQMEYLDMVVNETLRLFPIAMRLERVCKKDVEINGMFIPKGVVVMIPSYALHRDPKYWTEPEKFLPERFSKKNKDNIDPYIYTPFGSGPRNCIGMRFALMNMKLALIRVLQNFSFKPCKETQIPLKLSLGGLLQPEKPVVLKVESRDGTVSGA

N.N.[Cl][Pt][Cl] [Cisplatin, reference compound]
MTV (Mean Tumor Volume) (NCI-H69 xenograft): 229 mm3
TGI (Tumor Growth Inhibition) (NCI-H69 xenograft): 84%

COc1cc2cc(c1Cl)N(C)C(=O)C[C@H](OC(=O)[C@H](C)N(C)C(=O)CCS)C1(C)O[C@H]1[C@H](C)[C@@H]1C[C@@](O)(NC(=O)O1)[C@H](OC)/C=C/C=C(\C)C2 (stereo partly drawn) [DM1, mertansine (DM1), reference compound]
pIC50 (HCC-33): 7.47
metabolizing enzymes in vitro (CYP3A4): metabolized in vitro mainly by CYP3A4
pIC50 (NCI-H69; 0.5 h, 30 min incubation): 7.82
pIC50 (NCI-H69; 1 h incubation): 8.10
pIC50 (NCI-H69; 2 h incubation): 7.85
pIC50 (NCI-H69; 4 h incubation): 7.96
pIC50 (NCI-H69; 6 h incubation): 8.22
pIC50 (NCI-H727; 0.5 h, 30 min incubation): 5.94
pIC50 (NCI-H727; 1 h incubation): 6.18
pIC50 (NCI-H727; 2 h incubation): 6.32
pIC50 (NCI-H727; 4 h incubation): 6.42
pIC50 (NCI-H727; 6 h incubation): 6.27
pIC50 (NCI-H82; 0.5 h, 30 min incubation): 6.77
pIC50 (NCI-H82; 1 h incubation): 6.63
pIC50 (NCI-H82; 2 h incubation): 6.74
pIC50 (NCI-H82; 4 h incubation): 6.73
pIC50 (NCI-H82; 6 h incubation): 7.25

C[C@@H](O)[C@@H]1NC(=O)[C@H](CCCCN)NC(=O)[C@@H](Cc2c[nH]c3ccccc23)NC(=O)[C@H](Cc2ccccc2)NC(=O)[C@@H](NC(=O)[C@@H](Cc2ccccc2)NC(=O)CN(CCN(CCN(CC(=O)O)CC(=O)O)CC(=O)O)CC(=O)O)CSSC[C@@H](C(=O)N[C@H](CO)[C@@H](C)O)NC1=O [^111In pentetreotide, metal not drawn]
hormonal effect relative to octreotide ([1]; according to the manufacturer): 1/10
adverse reactions, frequency ([1]; human, in vivo): < 1%

— patent US11213590B2, “SSTR-targeted conjugates and particles and formulations thereof” (priority 2016, dated 2022)
